# Source: paper PMC12320831, “Synthesis and Biological Evaluation of New Chalcogen Semicarbazone (S, Se) and Their Azole Derivatives against Chagas Disease” (Journal of Medicinal Chemistry, 2024)
# “And” between values parts separate entries of the source, which are not always exact repeats. Equal entries are not always repeated. Where two headings read alike, the source gives them in different places.
# Assays:
# T. cruzi CAI/72 strain = test: Antiparasitic activity in C2C12 cells infected with T. cruzi CAI/72 (image-based assay); format: cell-based; details: for EC50: read-out: EC50 Tc CAI/72, intracellular amastigotes in C2C12 cells, 48 h, mean of three experiments in triplicate (n = 9) ± SD
# [1] = Host cell cytotoxicity (C2C12 viability); format: cell-based, Mouse; details: mouse
# Summary of the method: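 Mouse C2C12 myoblasts co-seeded with CAI/72 trypomastigotes (10:1 parasite:cell) on compound, 48 h at 37 °C, 5% CO2. DAPI-stained fixed cells imaged; parasites per host cell normalized to 40 μM BNZ and DMSO. EC50 and C2C12 viability from dose-response curves, three biological replicates in triplicate.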
# recombinant Cz (cruzain) = molecular target: T1, recombinant Cz (cruzain) (Trypanosoma cruzi, UniProt P25779); test: biochemical; details: for SICz: ratio between IC50 hCatL and IC50 Cz
# T1 construct: Cz was expressed and purified as described in da Silva et al; made in house
# Summary of the method: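 Cruzain (1 nM) was preincubated 10 min with compound in 0.1 M sodium acetate pH 5.5, 1 mM DTT, 0.01% Triton X-100, then 2.5 μM Z-FR-AMC (final) was added. Fluorescence (360/460 nm) was read for 10 min at 25 °C and normalized to DMSO.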
# [2] = molecular target: T2, Recombinant human cathepsin L (hCatL) (Homo sapiens, UniProt P07711); test: Human cathepsin L inhibition assay (Z-FR-AMC substrate); format: biochemical
# T2 construct: purchased R&D Systems 952-CY
# Description: Compounds were screened at 10 μM. […] The experiment was performed for 30 min.
# All experiments were accomplished in a 384-well black microplate, using a Synergy HTX (Biotek) plate reader at 25 °C with absorption/emission wavelengths of 360/460 nm. All assays were performed in triplicate wells and DMSO was used as a vehicle control. Enzymatic activity was measured and normalized to DMSO controls, and the inhibitor E-64 (10 μM) was used as a positive control for all assays. All experiments were performed in triplicates, with at least two independent assays (n = 6 data points). IC50 values were determined through nonlinear regression. Obtained data were treated and analyzed using GraphPad Prism 9.0 (GraphPad Software, La Jolla, California).
# [3] = DPPH radical scavenging (antioxidant) assay; details: for Percentage of inhibited DPPH (2 h): mean ± SEM
# Description: The antioxidant capacity of the selected Se compound was tested using the DPPH assay described by Astrain-Redin. The compound was tested at three different concentrations (0.06, 0.03, and 0.015 mg/mL) and we used two positive controls: ascorbic acid (ASC) and trolox (TRO). A solution of DPPH (2,2-diphenyl-1-picrylhydrazyl) in methanol (0.04 mg/mL, preserved in the dark) was prepared and 100 μL of this stock solution was added to 100 μL of tested compound solution. The color change, from purple (radical) to yellow (reduced), was measured at 517 nm at different time points (0, 5, 15, 30, 60, 90, and 120 min). All measurements were carried out in triplicate and recorded on a BioTek PowerWave XS spectrophotometer (Biotek). Data were collected using BioTek Gen5Microplate reader and Imager software (Agilent, version 3.12). Results are expressed as a percentage of inhibited DPPH ± standard error of the mean (SEM), calculated using the following formula %inhibitedDPPH=Acontrol−Asample/Acontrol×100 where A control refers to the absorbance of the negative control and A sample refers to the absorbance of the tested compound.
# T1 sequence (P25779 123-337 limits assumed): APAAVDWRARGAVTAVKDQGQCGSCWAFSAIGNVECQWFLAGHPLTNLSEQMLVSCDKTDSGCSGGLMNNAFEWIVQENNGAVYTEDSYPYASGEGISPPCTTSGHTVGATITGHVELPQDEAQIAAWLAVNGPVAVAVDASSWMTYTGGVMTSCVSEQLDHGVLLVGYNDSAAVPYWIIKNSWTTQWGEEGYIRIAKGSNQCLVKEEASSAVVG
# T2 sequence (P07711 114-333): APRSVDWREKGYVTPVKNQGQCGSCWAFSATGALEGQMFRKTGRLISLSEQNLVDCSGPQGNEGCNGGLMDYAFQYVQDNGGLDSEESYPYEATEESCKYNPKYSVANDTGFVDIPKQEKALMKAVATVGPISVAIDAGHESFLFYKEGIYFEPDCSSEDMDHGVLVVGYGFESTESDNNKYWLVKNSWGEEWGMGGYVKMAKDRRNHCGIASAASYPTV
smiles,measurement,setting,value
"C/C(=N\Nc1nc(C)c[se]1)c1cccc([N+](=O)[O-])c1.Cl [Se2h, (E)-4-Methyl-2-(2-(1-(3-nitrophenyl)ethylidene)hydrazineyl)-1,3-selenazole Hydrochloride]",inhibition at 10 µM,"T. cruzi CAI/72 strain; Trypanosoma cruzi, C2C12, read-out: Anti-Tc CAI/72 activity (%)",57.7%
same,EC50,T. cruzi CAI/72 strain,310 ± 180 nM
same,EC50,T. cruzi CAI/72 strain; listed as Se 2h,< 1000 nM
same,"viability at 48 h, 10 µM","[1]; 10 µM, < 50% viability considered cytotoxic",> 100%
same,CC50 at 48 h,[1]; viability calculated at 10 μM,> 10000 nM
same,Cz inhibition (%),recombinant Cz (cruzain); 10 µM,100.09%
same,IC50,"recombinant Cz (cruzain); IC50 Cz, single biological replicate (Figure 3), each of two biological replicates in triplicate",3.4 nM and 14.5 nM
same,IC50,"recombinant Cz (cruzain); mean of two experiments in triplicate (n = 6) ± SEM, read-out: IC50 Cz",8.99 ± 5.56 nM
same,SICz,recombinant Cz (cruzain),148.83
same,SICz,recombinant Cz (cruzain); listed as Se 2h,149
same,inhibition at 10 µM,"recombinant Cz (cruzain); read-out: Cz inhibition (%), 10 µM",> 85%
same,inhibition at 10 µM,[2]; 10 µM,92.2%
same,IC50,"[2]; each of two biological replicates in triplicate, read-out: IC50 hCatL, single biological replicate (Figure 4)",1320 nM and 1360 nM
same,IC50,"[2]; mean of two experiments in triplicate (n = 6) ± SEM, read-out: IC50 hCatL",1340 ± 18 nM
same,Percentage of inhibited DPPH (2 h),"[3]; 0,03 mg/ml","78,00 ± 1,73%"
same,Percentage of inhibited DPPH (2 h),"[3]; 0,06 mg/ml","78,33 ± 1,76%"
same,time to reach the plateau of the DPPH kinetic curve,[3]; 0.015 mg/mL,30 min
same,Percentage of inhibited DPPH (2 h),"[3]; 0,015 mg/ml","77,33 ± 0,88%"
same,inhibition of DPPH after 2 h,"[3]; all tested concentrations (0.06, 0.03 and 0.015 mg/mL)",more than 60%
